This passage reports IC50 results from patent US11034694B2, “Substituted isoindolin-1-ones and 2,3-dihydro-1H-pyrrolo[3,4-c]pyridin-1-ones as HPK1 antagonists” (Nimbus Saturn, Inc., priority 2019, dated 2021).

The test addresses HPK1 (Homo sapiens (Human), UniProt Q92918). The test is described as follows: HPK1 biochemical enzyme assay (microfluidic mobility shift assay). The note with it: 1 mM ATP; 1.5 nM HPK1; 30 min preincubation, 60 min reaction; Caliper EZ Reader; read-out: HPK1 1000UMATP caliper IC50. The method, then:
HPK1 biochemical enzyme assay: HPK1 enzyme inhibition was measured using a microfluidic mobility shift assay. […] Test compounds were titrated in ten point curves (top final assay concentration 3 μM), and preincubated with enzyme/substrate mix for 30 min prior to initiation of the reaction by addition of ATP (1 mM final concentration) and substrate (1 μM final concentration; Carna Biosciences) diluted in assay buffer supplemented by MgCl2 (final assay concentration of 5 mM). Following 60 min incubation at RT, the reaction was terminated by addition of 60 μl/well termination buffer (Carna Biosciences) and signal determination using a Caliper EZ Reader (Perkin Elmer, UK).

Chain of HPK1 (Q92918 whole entry): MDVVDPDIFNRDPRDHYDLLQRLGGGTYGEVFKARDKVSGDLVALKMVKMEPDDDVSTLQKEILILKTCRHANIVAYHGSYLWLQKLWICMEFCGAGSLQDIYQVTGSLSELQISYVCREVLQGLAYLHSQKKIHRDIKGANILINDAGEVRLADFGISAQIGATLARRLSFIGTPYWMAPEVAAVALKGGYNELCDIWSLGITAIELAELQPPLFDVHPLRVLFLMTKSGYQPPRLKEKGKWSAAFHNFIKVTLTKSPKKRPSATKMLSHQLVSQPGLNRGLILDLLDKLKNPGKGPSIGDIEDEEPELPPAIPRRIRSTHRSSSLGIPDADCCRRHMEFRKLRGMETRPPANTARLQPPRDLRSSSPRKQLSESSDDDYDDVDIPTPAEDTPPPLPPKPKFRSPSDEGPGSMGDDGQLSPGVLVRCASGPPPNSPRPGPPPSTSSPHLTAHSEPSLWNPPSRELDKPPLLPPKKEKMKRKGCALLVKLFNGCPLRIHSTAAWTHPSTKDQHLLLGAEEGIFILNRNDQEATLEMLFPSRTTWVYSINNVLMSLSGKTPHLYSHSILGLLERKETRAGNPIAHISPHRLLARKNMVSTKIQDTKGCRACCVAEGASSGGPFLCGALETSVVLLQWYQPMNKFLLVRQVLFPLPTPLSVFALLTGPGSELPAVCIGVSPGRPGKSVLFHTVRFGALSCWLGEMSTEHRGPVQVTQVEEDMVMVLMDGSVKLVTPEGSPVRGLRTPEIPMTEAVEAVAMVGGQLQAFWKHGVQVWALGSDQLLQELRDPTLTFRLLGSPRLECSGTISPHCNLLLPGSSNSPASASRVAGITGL

As usually defined, the IC50 is the concentration needed to halve the response being measured. `O=C1NCc2c(-c3cnc4cc(F)ccn34)ccc(Nc3ccc(N4CC5CCC(C4)C5O)cn3)c21` (stereo not shown) [I-405, 4-(7-fluoroimidazo [1,2-a]pyridin-3-yl)-7-((5-(8-hydroxy-3-azabicyclo [3.2.1]octan-3-yl)pyridin-2-yl)amino)isoin-dolin-1-one]: the IC50 was less than 100 nM.
